Several values for one entry are separate records, joined by “and”; a condition that tells them apart may be missing. Equal values may be shown once. Read-outs that look alike come from different tables or passages of the source.
Legend:
CYP2C9 [1] = conditions: for t max: median (range); for t max median difference B–A / t max median difference D–A: median difference (90% CI); for t ½ ratio Trt B/Trt A / t ½ ratio Trt D/Trt A / AUC0–24 ratio Trt B/Trt A / C max ratio Trt B/Trt A / AUC0–24 ratio Trt D/Trt A / C max ratio Trt D/Trt A: ratio of geometric means (90% CI); for AUC0–24 ratio Trt B/Trt A / C max ratio Trt B/Trt A: initial nivasorexant dose vs cocktail alone; for AUC0–24 ratio Trt D/Trt A / C max ratio Trt D/Trt A: nivasorexant steady state vs cocktail alone; for half-life: t ½
CYP2C19 [2] = target: T1, CYP2C19 (Homo sapiens, UniProt P33261); assay: clinical; conditions: both, in vivo; for AUC(0-t) / half-life: geometric mean (95% CI); for half-life: t ½
T1 sequence (P33261 whole entry): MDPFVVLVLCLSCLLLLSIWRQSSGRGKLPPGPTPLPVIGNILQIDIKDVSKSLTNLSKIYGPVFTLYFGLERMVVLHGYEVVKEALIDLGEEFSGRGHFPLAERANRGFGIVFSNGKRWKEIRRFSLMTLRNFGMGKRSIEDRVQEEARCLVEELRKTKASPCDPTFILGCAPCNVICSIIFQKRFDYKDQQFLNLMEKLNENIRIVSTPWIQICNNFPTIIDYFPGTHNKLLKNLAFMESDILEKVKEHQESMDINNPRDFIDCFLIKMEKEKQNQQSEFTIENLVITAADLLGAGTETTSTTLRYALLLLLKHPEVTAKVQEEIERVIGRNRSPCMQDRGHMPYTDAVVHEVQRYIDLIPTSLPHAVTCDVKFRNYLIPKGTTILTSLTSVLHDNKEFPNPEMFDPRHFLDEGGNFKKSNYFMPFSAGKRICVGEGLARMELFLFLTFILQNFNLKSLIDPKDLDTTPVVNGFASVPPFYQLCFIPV

CYP2C19 [3] = target: T1, CYP2C19; conditions: for t max: median (range); for t max median difference B–A / t max median difference D–A: median difference (90% CI); for AUC0–24 ratio Trt B/Trt A / C max ratio Trt B/Trt A: initial nivasorexant dose vs cocktail alone; for C max / AUC0–24 / t ½: geometric mean (95% CI)
healthy subjects = assay: Safety and tolerability in the clinical study; conditions: Day 1 to Day 15, healthy subjects
CYP2C9 [4] = target: CYP2C9 (Homo sapiens, UniProt P11712); conditions: with flurbiprofen, tolbutamide, and warfarin; cited from earlier work
Sequence of CYP2C9 (Homo sapiens, UniProt P11712) (P11712 whole entry): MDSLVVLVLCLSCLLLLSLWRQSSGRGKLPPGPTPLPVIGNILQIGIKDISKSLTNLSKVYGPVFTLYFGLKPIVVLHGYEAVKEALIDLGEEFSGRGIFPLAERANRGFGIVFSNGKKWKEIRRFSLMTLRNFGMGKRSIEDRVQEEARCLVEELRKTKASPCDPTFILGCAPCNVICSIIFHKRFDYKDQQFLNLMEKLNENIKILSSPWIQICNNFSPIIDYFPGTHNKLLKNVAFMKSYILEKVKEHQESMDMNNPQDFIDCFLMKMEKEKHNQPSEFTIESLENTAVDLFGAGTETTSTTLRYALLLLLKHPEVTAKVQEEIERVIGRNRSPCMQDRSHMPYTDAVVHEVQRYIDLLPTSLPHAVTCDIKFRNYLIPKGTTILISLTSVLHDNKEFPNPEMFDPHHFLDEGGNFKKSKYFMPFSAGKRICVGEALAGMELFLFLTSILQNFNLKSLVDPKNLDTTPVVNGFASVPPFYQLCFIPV

CYP3A4 [5] = target: T2, CYP3A4 (Homo sapiens, UniProt P08684); conditions: cited from earlier work
T2 sequence (P08684 whole entry): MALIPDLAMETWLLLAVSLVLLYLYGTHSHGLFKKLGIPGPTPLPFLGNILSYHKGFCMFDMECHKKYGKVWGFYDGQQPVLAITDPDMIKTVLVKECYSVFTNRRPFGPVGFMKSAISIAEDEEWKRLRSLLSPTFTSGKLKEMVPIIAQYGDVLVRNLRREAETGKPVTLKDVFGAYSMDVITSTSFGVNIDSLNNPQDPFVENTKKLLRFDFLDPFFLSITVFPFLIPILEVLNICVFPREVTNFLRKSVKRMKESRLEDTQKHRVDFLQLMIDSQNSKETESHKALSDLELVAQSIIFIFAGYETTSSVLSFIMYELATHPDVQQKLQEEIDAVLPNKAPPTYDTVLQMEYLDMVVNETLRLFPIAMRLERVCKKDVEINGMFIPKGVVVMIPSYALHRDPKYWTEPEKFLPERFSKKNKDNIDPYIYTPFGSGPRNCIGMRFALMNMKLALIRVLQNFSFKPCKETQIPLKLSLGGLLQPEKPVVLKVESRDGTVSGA

CYP3A4 [6] = target: T2, CYP3A4; assay: Cocktail DDI study: PK of midazolam and 1-OH midazolam with/without nivasorexant; conditions: for t max: median (range); for AUC(0-t) / half-life: both, human, plasma, oral; for half-life: t ½; for t max median difference B–A / t max median difference D–A: median difference (90% CI); for t ½ ratio Trt B/Trt A / t ½ ratio Trt D/Trt A / AUC0–24 ratio Trt B/Trt A / C max ratio Trt B/Trt A / AUC0–24 ratio Trt D/Trt A / C max ratio Trt D/Trt A: ratio of geometric means (90% CI); for AUC0–24 ratio Trt B/Trt A / C max ratio Trt B/Trt A: initial nivasorexant dose vs cocktail alone; for AUC0–24 ratio Trt D/Trt A / C max ratio Trt D/Trt A: nivasorexant steady state vs cocktail alone
CYP2C19 [7] = conditions: 25 mg b.i.d. for 6 days; cited from earlier work
[8] = Trt A, Day 1, cocktail alone, geometric mean (95% CI)
[9] = Trt B, Day 8, cocktail + initial 100 mg nivasorexant, geometric mean (95% CI)
[10] = Trt B, Day 8, cocktail + initial 100 mg nivasorexant
[11] = Trt D, Day 15, cocktail + nivasorexant at steady state, geometric mean (95% CI)
[12] = Trt D, Day 15, cocktail + nivasorexant at steady state
[13] = ratio of geometric means (90% CI)
[14] = ratio of geometric means (90% CI), nivasorexant steady state vs cocktail alone

CC(C(=O)O)c1ccc(-c2ccc(O)cc2)c(F)c1 (stereo not shown) [4‐OH flurbiprofen, 4‐hydroxyflurbiprofen]
C max (CYP2C9 [1]; Trt A, Day 1, cocktail alone (flurbiprofen 50 mg), geometric mean (95% CI)): 316 (278–359) ng/mL
AUC0–24 (CYP2C9 [1]; [8]): 2516 (2280–2778) ng*h/mL
t ½ (CYP2C9 [1]; [8]): 7.85 (7.04–8.75) h
t max (CYP2C9 [1]; Trt A, Day 1, cocktail alone): 3.00 (1.50–6.00) h
AUC0–24 (CYP2C9 [1]; [9]): 2366 (2138–2618) ng*h/mL
C max (CYP2C9 [1]; [9]): 289 (259–322) ng/mL
t ½ (CYP2C9 [1]; [9]): 8.03 (7.28–8.87) h
t max (CYP2C9 [1]; [10]): 3.00 (1.50–6.02) h
AUC0–24 (CYP2C9 [1]; [11]): 1924 (1763–2099) ng*h/mL
t ½ (CYP2C9 [1]; [11]): 12.0 (10.0–14.3) h
t max (CYP2C9 [1]; [12]): 3.00 (1.50–6.00) h
t max median difference B–A (CYP2C9 [1]): 0.74 (−0.02–1.50) h
t max median difference D–A (CYP2C9 [1]): 0.50 (−0.04–1.00) h
t ½ ratio Trt B/Trt A (CYP2C9 [1]): 1.02 (0.97–1.09)
t ½ ratio Trt D/Trt A (CYP2C9 [1]): 1.54 (1.39–1.70)
AUC0–24 ratio Trt B/Trt A (CYP2C9 [1]): 0.94 (0.90–0.98)
C max ratio Trt B/Trt A (CYP2C9 [1]): 0.91 (0.87–0.96)
AUC0–24 ratio Trt D/Trt A (CYP2C9 [1]): 0.74 (0.70–0.79)
C max ratio Trt D/Trt A (CYP2C9 [1]): 0.53 (0.49–0.59)

COc1ccc2[nH]c([S+]([O-])Cc3ncc(C)c(OC)c3C)nc2c1 (stereo not shown) [omeprazole]
Cmax (CYP2C19 [2]; 20 mg): 162 ng/mL
AUC(0-t) (CYP2C19 [2]; AUC0–24, Trt A, Day 1, cocktail alone): 372 ng·h/mL
AUC(0-t) (CYP2C19 [2]; AUC0–24, Trt D, Day 15, cocktail + nivasorexant at steady state): 2670 ng·h/mL
half-life (CYP2C19 [2]; Trt A, Day 1, cocktail alone): 0.99 h
half-life (CYP2C19 [2]; [12]): 1.99 h
t max (CYP2C19 [3]; Trt A, Day 1, cocktail alone): 3.00 (1.00–6.00) h
t max median difference B–A (CYP2C19 [3]): 0.5 h
t max median difference D–A (CYP2C19 [3]): 1.00 h
t max median difference B–A (CYP2C19 [3]; listed as Omeprazole): 0.50 (0.00–1.49) h
t max median difference D–A (CYP2C19 [3]; listed as Omeprazole): 1.00 (0.50–1.75) h
t ½ ratio Trt B/Trt A (CYP2C19 [3]; [13]): 1.46 (1.24–1.72)
t ½ ratio Trt D/Trt A (CYP2C19 [3]; [13]): 2.01 (1.69–2.40)
AUC0–24 ratio Trt B/Trt A (CYP2C19 [3]; [13]): 2.05 and 2.1
C max ratio Trt B/Trt A (CYP2C19 [3]; [13]): 1.60 (1.30–1.97)
AUC0–24 ratio Trt D/Trt A (CYP2C19 [3]; [14]): 6.84 and 6.8
C max ratio Trt D/Trt A (CYP2C19 [3]; [14]): 3.31 (2.55–4.28)
safety and tolerability (in words) (healthy subjects): safe and well tolerated

CC(C(=O)O)c1ccc(-c2ccccc2)c(F)c1 (stereo not shown) [flurbiprofen]
Cmax (CYP2C9 [1]; both, human, in vivo, 50 mg, C max, Trt A, Day 1, cocktail alone (flurbiprofen 50 mg), geometric mean (95% CI)): 6410 ng/mL
t max (CYP2C9 [1]; both, human, in vivo, t max, Trt A, Day 1, cocktail alone): 2 h
t max (CYP2C9 [1]; both, human, in vivo, t max, Trt D, Day 15, cocktail + nivasorexant at steady state): 2.5 h
half-life (CYP2C9 [1]; both, human, in vivo, Trt A, Day 1, cocktail alone, geometric mean (95% CI)): 5.73 h
half-life (CYP2C9 [1]; both, human, in vivo, Trt D, Day 15, cocktail + nivasorexant at steady state, geometric mean (95% CI)): 7.89 h
t max median difference B–A (CYP2C9 [1]): 0.75 (0.00–1.51) h
t max median difference D–A (CYP2C9 [1]): 0.50 (−0.13–1.16) h
t ½ ratio Trt B/Trt A (CYP2C9 [1]): 1.11 (1.07–1.15)
t ½ ratio Trt D/Trt A (CYP2C9 [1]): 1.39 (1.31–1.47)
AUC0–24 ratio Trt B/Trt A (CYP2C9 [1]): 1.04
C max ratio Trt B/Trt A (CYP2C9 [1]): 0.97 (0.86–1.08)
AUC0–24 ratio Trt D/Trt A (CYP2C9 [1]): 1.47 and 1.5
C max ratio Trt D/Trt A (CYP2C9 [1]): 1.08 (0.97–1.20)
safety and tolerability (in words) (healthy subjects): safe and well tolerated

COc1ccc2nc([S+]([O-])Cc3ncc(CO)c(OC)c3C)[nH]c2c1 (stereo not shown) [5‐OH omeprazole]
C max (CYP2C19 [3]; Trt A, Day 1, cocktail alone (omeprazole 20 mg)): 129 (110–151) ng/mL
AUC0–24 (CYP2C19 [3]; Trt A, Day 1, cocktail alone): 367 (332–406) ng*h/mL
t ½ (CYP2C19 [3]; Trt A, Day 1, cocktail alone): 1.34 (1.20–1.49) h
t max (CYP2C19 [3]; Trt A, Day 1, cocktail alone): 3.00 (1.00–6.00) h
AUC0–24 (CYP2C19 [3]; [10]): 338 (314–363) ng*h/mL
C max (CYP2C19 [3]; [10]): 97.0 (85.0–110.7) ng/mL
t ½ (CYP2C19 [3]; [10]): 1.53 (1.30–1.80) h
t max (CYP2C19 [3]; [10]): 3.49 (1.50–6.02) h
AUC0–24 (CYP2C19 [3]; [12]): 278 (253–305) ng*h/mL
t ½ (CYP2C19 [3]; [12]): 2.03 (1.79–2.32) h
t max (CYP2C19 [3]; [12]): 4.00 (1.50–10.00) h
t max median difference B–A (CYP2C19 [3]): 0.50 (0.00–1.16) h
t max median difference D–A (CYP2C19 [3]): 1.25 (0.75–2.00) h
t ½ ratio Trt B/Trt A (CYP2C19 [3]; [13]): 1.14 (0.99–1.32)
t ½ ratio Trt D/Trt A (CYP2C19 [3]; [13]): 1.50 (1.36–1.66)
AUC0–24 ratio Trt B/Trt A (CYP2C19 [3]; [13]): 0.92 (0.85–1.00)
C max ratio Trt B/Trt A (CYP2C19 [3]; [13]): 0.75 (0.66–0.86)
AUC0–24 ratio Trt D/Trt A (CYP2C19 [3]; [14]): 0.74 (0.67–0.82)

OC(Cn1cncn1)(Cn1cncn1)c1ccc(F)cc1F [fluconazole]
increase in AUC ratio of CYP2C9 probe substrates (CYP2C9 [4]): approximately two‐fold

Cc1ncc2n1-c1ccc(Cl)cc1C(c1ccccc1F)=NC2 [midazolam]
increase in midazolam AUC (CYP3A4 [5]; initial b.i.d. dosing with 200 mg nivasorexant): 1.8 fold
increase in midazolam AUC (CYP3A4 [5]; repeated b.i.d. dosing (over 10 days) with 200 mg nivasorexant): 4.5 fold
t max (CYP3A4 [6]; Trt A, Day 1, cocktail alone): 0.75 (0.50–3.00) h
AUC0–24 (CYP3A4 [6]; [9]): 22.7 (19.5–26.5) ng*h/mL
AUC(0-t) (CYP3A4 [6]; AUC0–24, Trt A, Day 1, cocktail alone, geometric mean (95% CI)): 14.6 ng·h/mL
AUC(0-t) (CYP3A4 [6]; AUC0–24, Trt D, Day 15, cocktail + nivasorexant at steady state, geometric mean (95% CI)): 54.8 ng·h/mL
half-life (CYP3A4 [6]; [8]): 4.94 h
half-life (CYP3A4 [6]; [11]): 6.75 h
t max median difference B–A (CYP3A4 [6]): 0.00 (−0.13–0.13) h
t max median difference D–A (CYP3A4 [6]): 0.00 (−0.13–0.13) h
t ½ ratio Trt B/Trt A (CYP3A4 [6]): 1.67 (1.38–2.01)
t ½ ratio Trt D/Trt A (CYP3A4 [6]): 1.25 (1.07–1.46)
AUC0–24 ratio Trt B/Trt A (CYP3A4 [6]): 1.56 and 1.6
C max ratio Trt B/Trt A (CYP3A4 [6]): 1.34 (1.22–1.46)
AUC0–24 ratio Trt D/Trt A (CYP3A4 [6]): 3.71 and 3.7
C max ratio Trt D/Trt A (CYP3A4 [6]): 2.62 (2.31–2.97)
safety and tolerability (in words) (healthy subjects): safe and well tolerated

OCc1ncc2n1-c1ccc(Cl)cc1C(c1ccccc1F)=NC2 [1‐OH midazolam, 1‐hydroxy (OH) midazolam]
AUC0–24 (CYP3A4 [6]; [8]): 8.50 (7.23–10.00) ng*h/mL
t ½ (CYP3A4 [6]; [8]): 2.27 (1.58–3.25) h
t max (CYP3A4 [6]; Trt A, Day 1, cocktail alone): 0.50 (0.50–3.00) h
AUC0–24 (CYP3A4 [6]; [9]): 8.64 (7.37–10.13) ng*h/mL
C max (CYP3A4 [6]; [9]): 4.12 (3.53–4.82) ng/mL
t ½ (CYP3A4 [6]; [9]): 2.94 (2.04–4.22) h
t max (CYP3A4 [6]; [10]): 0.75 (0.50–1.50) h
AUC0–24 (CYP3A4 [6]; [11]): 9.88 (8.02–12.18) ng*h/mL
t ½ (CYP3A4 [6]; [11]): 9.04 (6.82–11.97) h
t max (CYP3A4 [6]; [12]): 0.50 (0.50–1.50) h
t max median difference B–A (CYP3A4 [6]): 0.00 (0.000–0.13) h
t max median difference D–A (CYP3A4 [6]): 0.00 (−0.13–0.13) h
t ½ ratio Trt B/Trt A (CYP3A4 [6]): 1.29 [1.03–1.62]
t ½ ratio Trt D/Trt A (CYP3A4 [6]): 3.05 (2.03–4.58)
AUC0–24 ratio Trt B/Trt A (CYP3A4 [6]): 1.02 (0.96–1.08)
C max ratio Trt B/Trt A (CYP3A4 [6]): 1.02 (0.91–1.15)
t ½ ratio Trt B/Trt A (CYP3A4 [6]; listed as 1‐OH Midazolam): 1.29 (1.03–1.62)
AUC0–24 ratio Trt D/Trt A (CYP3A4 [6]): 1.15 (1.06–1.24)
C max ratio Trt D/Trt A (CYP3A4 [6]): 0.86 (0.75–0.98)

COCCCC/C(=N\OCCN)c1ccc(C(F)(F)F)cc1 [fluvoxamine]
increase in omeprazole exposure (CYP2C19 [7]): 5.6 fold

Reference: article PMC10557102 (Pharmacology Research & Perspectives, 2023)
